Results taken from patent US8012957B2, “Tetrahydro-1H-1,2,6-triaza-azulene cannabinoid modulators” (Janssen Pharmaceutica NV, priority 2006, dated 2011).

Assays:
[1] = biological target: T1, cannabinoid CB2 receptor (Homo sapiens, UniProt P34972); test: Binding assay for CB2, [3H]-CP-55,940 displacement on membranes of transfected SK-N-MC cells; conditions: test concentration of 0.2 μM
T1 construct: expressed in transfected cells; host or cells: SK-N-MC cells, pcDNA3 CB-2 (human), semi-purified membrane pellet
Description: (§1) Binding Assay for CB1 or CB2 Agonists or Inverse Agonists
(§2) The human CB1 and CB2 receptors were stably expressed in SK-N-MC cells transfected with pcDNA3 CB-1 (human) or pcDNA3 CB-2 (human). The cells were grown in T-180 cell culture flasks under standard cell culture conditions at 37° C. in a 5% CO2 atmosphere. The cells were harvested by trysinization and homogenized in a homogenization buffer (10 mM Tris, 0.2 mM MgCl2, 5 mM KCl, with protease inhibitors aprotinin, leupeptin, pepstatin A and bacitracin) and centrifuged (2000 g). The supernatant was then centrifuged in 2M sucrose (31,300 g) to produce a semi-purified membrane pellet. The pellet was resuspended in homogenization and stored at −80° C.
(§3) On the day of the assay, the pellet was thawed on ice and diluted in assay buffer (50 mM Tris-HCl, 5 mM MgCl2, 2.5 mM EDTA, 0.5 mg/mL fatty acid free bovine serum albumin, pH 7.5). The diluted membrane pellet was added with buffer, either a test compound or vehicle standard and a the radioligand [H]^3+-CP-55,940 (0.2 nM) to the wells of a 96-well polypropylene plate. Non-specific binding was measured in wells containing WIN 55,212 (10 uM). The plate was covered and incubated for 90 minutes at 30° C. The contents were then aspirated onto a Packard Unifilter GF/C filter bottom plate prewet with 0.5% polyethyleneimine. The wells of the polypropylene plate were rinsed and aspirated seven times with a 0.9% saline-0.5% Tween 20 solution. The Unifilter plate was dried, a scintillation cocktail was added to each well and the counts representing binding were quantitated in a TopCount scintillation counter.
(§4) For compounds tested, an IC50 binding value was obtained from percent inhibition studies in which various test concentrations were used. The binding value (in μM) was calculated by linear regression.
(§5) For those compounds without an IC50 binding value, the percent inhibition (%) was obtained at a test concentration of 0.2 μM.

[2] = biological target: T2, cannabinoid CB1 receptor (Homo sapiens, UniProt P21554); test: Binding assay for CB1, [3H]-CP-55,940 displacement on membranes of transfected SK-N-MC cells; conditions: for inhibition at 0.2 µM: test concentration of 0.2 μM, read-out: Cannabinoid CB 1 Receptor Binding Inhibition (%); for IC50: radioligand [3H]-CP-55,940 0.2 nM, calculated by linear regression
T2 construct: expressed in transfected cells; host or cells: SK-N-MC cells, pcDNA3 CB-1 (human), semi-purified membrane pellet
Description: as §1, §2, §3, §4, §5

T1 sequence (P34972 whole entry): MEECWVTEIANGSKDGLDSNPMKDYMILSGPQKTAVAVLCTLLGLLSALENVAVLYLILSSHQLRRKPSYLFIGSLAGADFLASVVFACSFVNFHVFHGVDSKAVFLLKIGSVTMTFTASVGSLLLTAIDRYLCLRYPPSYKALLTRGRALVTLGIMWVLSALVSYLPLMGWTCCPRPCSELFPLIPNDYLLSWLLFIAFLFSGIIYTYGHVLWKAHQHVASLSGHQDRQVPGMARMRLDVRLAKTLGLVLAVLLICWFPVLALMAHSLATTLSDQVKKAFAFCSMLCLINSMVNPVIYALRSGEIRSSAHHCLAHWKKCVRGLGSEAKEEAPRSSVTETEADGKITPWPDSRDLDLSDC
T2 sequence (P21554 whole entry): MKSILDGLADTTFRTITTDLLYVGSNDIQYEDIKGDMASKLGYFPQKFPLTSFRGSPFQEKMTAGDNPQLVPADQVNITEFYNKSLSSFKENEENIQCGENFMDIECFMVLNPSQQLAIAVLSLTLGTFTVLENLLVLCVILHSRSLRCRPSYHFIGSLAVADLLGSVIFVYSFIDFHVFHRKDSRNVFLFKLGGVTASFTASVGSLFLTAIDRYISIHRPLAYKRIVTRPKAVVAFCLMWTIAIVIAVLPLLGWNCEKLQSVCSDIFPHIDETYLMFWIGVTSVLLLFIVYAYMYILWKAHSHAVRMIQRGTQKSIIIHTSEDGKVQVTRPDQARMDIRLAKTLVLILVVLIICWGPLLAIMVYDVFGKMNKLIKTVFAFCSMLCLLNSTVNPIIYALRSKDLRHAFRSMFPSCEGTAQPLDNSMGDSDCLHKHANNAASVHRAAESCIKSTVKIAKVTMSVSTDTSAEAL

| Compound | inhibition at 0.2 µM [1] [%] | inhibition at 0.2 µM [2] [%] | IC50 [2] [nM] |
| --- | --- | --- | --- |
| CC(C)(C)OC(=O)N1CCc2c(C(=O)N3CCCCC3)nn(-c3ccc(Cl)cc3Cl)c2/C(=C/c2ccc(F)cc2)C1 [Cpd 1, (8E)-1-(2,4-dichloro-phenyl)-8-(4-fluoro-benzylidene)-3-(piperidine-1-carbonyl)-4,5,7,8-tetrahydro-1 H-1,2,6-triaza-azulene-6-carboxylic acid tert-butyl ester] | 6 | 27 |  |
| CC(C)(C)OC(=O)N1CCc2c(C(=O)NN3CCCCC3)nn(-c3ccc(Cl)cc3Cl)c2/C(=C/c2ccc(F)cc2)C1 [Cpd 2, (8E)-1-(2,4-dichloro-phenyl)-8-(4-fluoro-benzylidene)-3-(piperidin-1-ylcarbamoyl)-4,5,7,8-tetrahydro-1H-1,2,6-triaza-azulene-6-carboxylic acid tert-butyl ester] | 15 | 54 |  |
| CC(NC(=O)c1nn(-c2ccc(Cl)cc2Cl)c2c1CCN(C(=O)OC(C)(C)C)C/C2=C\c1ccc(F)cc1)c1ccccc1 (stereo not drawn) [Cpd 3, (8E)-1-(2,4-dichloro-phenyl)-8-(4-fluoro-benzylidene)-3-(1-phenyl-ethylcarbamoyl)-4,5,7,8-tetrahydro-1 H-1,2,6-triaza-azulene-6-carboxylic acid tert-butyl ester] | 15 |  | 61 |
| CC(NC(=O)c1nn(-c2ccc(Cl)cc2Cl)c2c1CCN(C(=O)OC(C)(C)C)C/C2=C\c1ccc(F)cc1)c1ccccn1 (stereo not drawn) [Cpd 4, (8E)-1-(2,4-dichloro-phenyl)-8-(4-fluoro-benzylidene)-3-(1-pyridin-2-yl-ethylcarbamoyl)-4,5,7,8-tetrahydro-1 H-1,2,6-triaza-azulene-6-carboxylic acid tert-butyl ester] | 14 |  | 50 |
| O=C(c1nn(-c2ccc(Cl)cc2Cl)c2c1CCNC/C2=C\c1ccc(F)cc1)N1CCCCC1 [Cpd 5, (8E)-[1-(2,4-dichloro-phenyl)-8-(4-fluoro-benzylidene)-1,4,5,6,7,8-hexahydro-1,2,6-triaza-azulen-3-yl]-piperidin-1-yl-methanone] | 10 | 16 |  |
| COC(=O)N1CCc2c(C(=O)NN3CCCCC3)nn(-c3ccc(Cl)cc3Cl)c2/C(=C/c2ccc(F)cc2)C1 [Cpd 6, (8E)-1-(2,4-dichloro-phenyl)-8-(4-fluoro-benzylidene)-3-(piperidin-1-ylcarbamoyl)-4,5,7,8-tetrahydro-1H-1,2,6-triaza-azulene-6-carboxylic acid methyl ester] | 17 | 39 |  |
